According to patent US7642047B2, “Method of screening cell death modulators” (priority 2003, dated 2010):

Experiments:
[1] = test system: GDNF-deprived sympathetic neurons; assay: Survival assay of GDNF-deprived sympathetic neurons; format: cell-based, rat; design: protection of GDNF-deprived neurons (FIG. 5B legend): dose or concentration left out as unconfirmed
Procedure: (§1) Briefly, the neurons of postnatal day-1-2 Han/Wi strain rats were grown six days in vitro on polyornithine -laminin-coated dishes or glass coverslips with 100 ng/ml of human GDNF (PeproTech) or 30 ng/ml of 2.5 S mouse NGF (Promega). […] To reduce the number of nonneuronal cells, 1 μM cytosine arabinoside (Sigma-Aldrich) was always included next day after plating, but was not added to factor-deprived neurons. To deprive GDNF, the cultures were washed gently three times with GDNF-free culture medium. To remove NGF, the cultures were washed once with NGF-free medium and function-blocking anti-NGF antibodies (Roche) were added. The compounds of interest were added and initial neurons were counted immediately after neurotrophic factor deprivation. Living neurons were counted daily by a “blind” experimenter not aware of the identity of experimental groups. The following compounds were assayed: broad-range caspase inhibitor boc-aspartyl(OMe) -fluoromethylketone. […] When the compounds were dissolved in DMSO, the same amount of DMSO was always added to the control cultures.
(§2) In all studies described below, the neurons from newborn rat SCG were maintained in sister dishes with GDNF (100 ng/ml) or NGF (30 ng/ml) for six DIV, then deprived of these factors for 48 or 72 hours, and analysed. NGF- and GDNF-responsive neurons were always analysed in parallel and received identical treatment.

[2] = test system: NGF-deprived sympathetic neurons; assay: Survival assay of NGF-deprived sympathetic neurons; format: cell-based, rat; design: protection of NGF-deprived neurons (FIG. 5B legend): dose or concentration left out as unconfirmed
Procedure: as §1, §2

[3] = test system: newborn rat sympathetic neurons from the superior cervical ganglion; assay: Survival of newly isolated sympathetic neurons maintained with neurotrophic factor; format: cell-based
Procedure: FIGS. 1A, 1B, and 1C. […] (1A) Newly isolated neurons were grown with GDNF (100 ng/ml), NGF (30 ng/ml) or without neurotrophic factors for eight days. The living neurons were counted daily and expressed as percent of initial neurons, counted two hours after plating. The mean±standard error of the mean of three independent cultures is shown for each data point. (1B) Newly isolated neurons were maintained with different doses of GDNF for six days. The living neurons were counted daily and expressed as percent of initial neurons, counted two hours after plating. For comparison, survival with NGF (30 ng/ml) is also shown. […] Living neurons were counted daily and expressed as percent of initial neurons counted immediately after factor deprivation. […]
Briefly, the neurons of postnatal day-1-2 Han/Wi strain rats were grown six days in vitro on polyornithine -laminin-coated dishes or glass coverslips with 100 ng/ml of human GDNF (PeproTech) or 30 ng/ml of 2.5 S mouse NGF (Promega). […] The compounds of interest were added and initial neurons were counted immediately after neurotrophic factor deprivation. Living neurons were counted daily by a “blind” experimenter not aware of the identity of experimental groups. […]
In similar conditions, about 98% of the NGF-maintained neurons had survived (FIG. 1 A). […] NGF- and GDNF-responsive neurons were always analysed in parallel and received identical treatment. […]

[4] = BAF at 50 μM, living neurons counted 72 h after deprivation
[5] = living neurons counted 72 h after treatment and deprivation

## COC(=O)CC(NC(=O)OC(C)(C)C)C(=O)CF (stereo not drawn) [BAF, boc-aspartyl(OMe)-fluoromethylketone]
[1]; [4]
  effect on death of GDNF-deprived neurons: almost completely blocked death
[1]; [5]
  protection of GDNF-deprived neurons (FIG. 5B legend): protects
[2]; [4]
  effect on death of NGF-deprived neurons: almost completely blocked death
[2]; [5]
  protection of NGF-deprived neurons (FIG. 5B legend): protects

B1: GDNF: human GDNF (PeproTech), glial cell line-derived neurotrophic factor (protein, UniProt P39905 78-211, looked up)
Glial cell line-derived …: SPDKQMAVLPRRERNRQAAAANPENSRGKGRRGQRGKNRGCVLTAIHLNVTDLGLGYETKEELIFRYCSGSCDAAETTYDKILKNLSRNRRLVSDKVGQACCRPIAFDDDLSFLDDNLVYHILRKHSAKRCGCI
[3]; by sixth day in vitro, GDNF 100 ng/ml or NGF 30 ng/ml, percent of initial neurons counted two hours after plating
  initially plated neurons survived: about 34%
[3]; dose-dependence study, neurons maintained six days
  saturating concentration for SCG neurons: 100 ng/mL
